Measured values: patent US8415469B2, “Compounds and methods for kinase modulation, and indications therefor” (Plexxikon Inc., priority 2005, dated 2013)

How the values were obtained:
Type in all cases: biochemical
B-Raf V600E = target: T1, B-Raf V600E (Homo sapiens, UniProt P15056, V600E); test: AlphaScreen kinase assay, B-Raf V600E; conditions: read-out: IC50, activity toward kinase B-Raf V600E
T1 construct: P4254. pFastBacBD-CDC37 BRAF D437-K722-X, V600E; His6 with pFastBac HT leader (TEV site) (N); made in house; host or cells: Sf9 (baculovirus; chaperone CDC37 co-expressed)

Src = target: T2, Src (Homo sapiens, UniProt P12931); test: AlphaScreen kinase assay, Src; conditions: read-out: IC50, activity toward kinase Src
T2 construct: P1144. pET-N6 BI-PTP SRC V86-L536-X; made in house

FGFR1 = target: T3, FGFR1 (Homo sapiens, UniProt P11362, C488A/C584S); test: AlphaScreen kinase assay, FGFR1; conditions: read-out: IC50, activity toward kinase FGFR
T3 construct: P1351.pET N6 BI-PTP FGFR A458-E765-X C488A, C584S; made in house; host or cells: E. coli (PTP1B co-expressed)

Kit = target: T4, Kit (Homo sapiens, UniProt P10721); test: AlphaScreen kinase assay, Kit; conditions: read-out: IC50, activity toward kinase Kit
T4 construct: P1332.N6 BI PTP KIT M552-K948-X COD; His6 (N); made in house; host or cells: E. coli (PTP1B co-expressed)

Fms = target: T5, Fms (Homo sapiens, UniProt P07333); test: AlphaScreen kinase assay, Fms; conditions: read-out: IC50, activity toward kinase Fms
T5 construct: purchased Upstate Biotechnology

Fak = target: T6, Fak (Homo sapiens, UniProt Q05397); test: AlphaScreen kinase assay, Fak; conditions: read-out: IC50, activity toward kinase Fak
T6 construct: P1358.pFastBacHtb FAK S411-Q686-X; His6 with pFastBacHTb leader (TEV site) (N); made in house; host or cells: Sf9 (baculovirus)

B-Raf = target: T7, B-Raf (Homo sapiens, UniProt P15056); test: AlphaScreen kinase assay, B-Raf; conditions: read-out: IC50, activity toward kinase B-Raf
T7 construct: purchased Upstate Biotechnology
Source text: AlphaScreen assay was used to screen additional kinases. The assay is similarly dependent on the phosphorylation of a peptide substrate. In this assay, an antibody that recognizes phosphorylated substrate is bound to an acceptor bead. The peptide substrate is attached to biotin, which binds to a donor head that contains streptavidin. Thus phosphorylated substrate is bound by antibody and streptavidin, bringing the donor and acceptor heads into close proximity when kinase is not inhibited. The donor produces singlet oxygen which results in emission from the acceptor when they are in close proximity. Conversely, when kinase is inhibited, the donor and acceptor beads are not associated and the emission from the acceptor is reduced.
AlphaScreen assays were done using compounds dissolved in DMSO to a concentration of 20 mM. The compounds were diluted accordingly to the desired final concentrations in each sample well, using 1:3 serial dilution for a total of 8 concentration points. Plates were prepared such that each kinase reaction is 20 μl in 1× kinase buffer, 5% DMSO and 10 μM ATP. After incubation of the kinase reaction for 1 hour at room temperature, 5 μl of donor beads in stop buffer (50 mM EDTA in 1× kinase buffer) was added, the sample was mixed and incubated for 20 minutes at room temperature before adding 5 μl of acceptor beads in stop buffer. The samples were incubated for 60 minutes at room temperature and the signal per well was read on AlphaQuest reader.

c-Raf-1 = target: T8, c-Raf-1 (Homo sapiens, UniProt P04049); test: AlphaScreen kinase assay, c-Raf-1; conditions: read-out: IC50, activity toward kinase c-Raf-1
T8 construct: purchased Upstate Biotechnology

Jnk1 = target: T9, Jnk1 (Homo sapiens, UniProt P45983); test: AlphaScreen kinase assay, Jnk1; conditions: read-out: IC50, activity toward kinase Jnk1
T9 construct: purchased Upstate Biotechnology

Kdr = target: T10, Kdr (Homo sapiens, UniProt P35968); test: Z'-Lyte FRET kinase assay (Invitrogen), Kdr; conditions: read-out: IC50, activity toward kinase Kdr
T10 construct: purchased Invitrogen (assay run by Invitrogen)

Ret = target: T11, Ret (Homo sapiens, UniProt P07949); test: AlphaScreen kinase assay, Ret; conditions: read-out: IC50, activity toward kinase Ret
T11 construct: P1378.pET-SF BI-PTP RET H661-R1012 HIS; made in house
T11 sequence (P07949 with tags, fused parts or gaps): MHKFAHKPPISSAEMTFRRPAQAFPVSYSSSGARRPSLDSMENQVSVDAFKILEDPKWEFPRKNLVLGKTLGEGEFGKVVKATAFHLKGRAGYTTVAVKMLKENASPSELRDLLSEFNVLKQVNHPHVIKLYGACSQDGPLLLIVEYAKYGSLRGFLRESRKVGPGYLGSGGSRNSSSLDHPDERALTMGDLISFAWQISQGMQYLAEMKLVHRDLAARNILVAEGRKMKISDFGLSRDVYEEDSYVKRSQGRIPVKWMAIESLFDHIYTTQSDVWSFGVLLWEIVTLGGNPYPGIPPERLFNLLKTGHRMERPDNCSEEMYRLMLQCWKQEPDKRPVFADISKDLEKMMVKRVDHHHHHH

Jnk3 = target: T12, Jnk3 (Homo sapiens, UniProt P53779); test: AlphaScreen kinase assay, Jnk3; conditions: read-out: IC50, activity toward kinase Jnk3
T12 construct: purchased Upstate Biotechnology

Flt1 = target: T13, Flt1 (Homo sapiens, UniProt P17948); test: AlphaScreen kinase assay, Flt1; conditions: read-out: IC50, activity toward kinase Flt1
T13 construct: P1826.pETN6 BI-PTP FLT1 M799-D1165-X WT; His6 (N); made in house; host or cells: E. coli (PTP1B co-expressed)
T13 sequence (P17948 with tags, fused parts or gaps): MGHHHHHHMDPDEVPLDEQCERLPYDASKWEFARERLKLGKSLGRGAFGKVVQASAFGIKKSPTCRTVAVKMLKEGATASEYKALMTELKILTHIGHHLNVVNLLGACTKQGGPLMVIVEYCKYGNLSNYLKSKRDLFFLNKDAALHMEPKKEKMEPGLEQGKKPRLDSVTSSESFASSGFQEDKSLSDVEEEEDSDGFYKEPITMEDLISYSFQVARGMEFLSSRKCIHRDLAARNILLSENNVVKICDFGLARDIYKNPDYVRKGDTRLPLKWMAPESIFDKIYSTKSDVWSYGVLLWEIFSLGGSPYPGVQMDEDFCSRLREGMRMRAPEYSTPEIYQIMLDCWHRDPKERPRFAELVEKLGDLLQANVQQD

Measured: IC50

T2 sequence (P12931 with tags, fused parts or gaps): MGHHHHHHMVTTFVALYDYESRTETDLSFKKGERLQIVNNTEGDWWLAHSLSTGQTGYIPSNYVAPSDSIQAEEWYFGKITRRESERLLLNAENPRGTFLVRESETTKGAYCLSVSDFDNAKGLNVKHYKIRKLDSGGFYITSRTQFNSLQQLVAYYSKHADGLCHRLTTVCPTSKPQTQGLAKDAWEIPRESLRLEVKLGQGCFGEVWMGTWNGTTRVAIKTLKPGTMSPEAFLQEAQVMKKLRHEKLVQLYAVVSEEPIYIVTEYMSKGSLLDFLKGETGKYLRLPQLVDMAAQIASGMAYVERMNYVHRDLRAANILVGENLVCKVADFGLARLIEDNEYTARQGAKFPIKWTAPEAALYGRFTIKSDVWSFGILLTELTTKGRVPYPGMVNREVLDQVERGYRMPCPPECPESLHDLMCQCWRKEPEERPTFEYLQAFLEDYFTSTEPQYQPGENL
T4 sequence (P10721 with tags, fused parts or gaps): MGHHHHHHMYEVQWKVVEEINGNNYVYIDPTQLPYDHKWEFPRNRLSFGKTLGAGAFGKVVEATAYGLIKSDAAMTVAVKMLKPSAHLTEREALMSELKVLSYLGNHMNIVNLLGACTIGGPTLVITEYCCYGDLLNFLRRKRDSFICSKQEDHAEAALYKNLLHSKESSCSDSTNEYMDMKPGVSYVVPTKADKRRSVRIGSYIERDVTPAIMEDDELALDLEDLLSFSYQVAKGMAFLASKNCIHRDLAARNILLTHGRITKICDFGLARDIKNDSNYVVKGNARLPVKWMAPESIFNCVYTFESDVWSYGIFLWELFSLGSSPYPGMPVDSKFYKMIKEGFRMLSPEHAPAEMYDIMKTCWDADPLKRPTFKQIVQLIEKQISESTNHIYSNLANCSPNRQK
T5 sequence (P07333 20-972): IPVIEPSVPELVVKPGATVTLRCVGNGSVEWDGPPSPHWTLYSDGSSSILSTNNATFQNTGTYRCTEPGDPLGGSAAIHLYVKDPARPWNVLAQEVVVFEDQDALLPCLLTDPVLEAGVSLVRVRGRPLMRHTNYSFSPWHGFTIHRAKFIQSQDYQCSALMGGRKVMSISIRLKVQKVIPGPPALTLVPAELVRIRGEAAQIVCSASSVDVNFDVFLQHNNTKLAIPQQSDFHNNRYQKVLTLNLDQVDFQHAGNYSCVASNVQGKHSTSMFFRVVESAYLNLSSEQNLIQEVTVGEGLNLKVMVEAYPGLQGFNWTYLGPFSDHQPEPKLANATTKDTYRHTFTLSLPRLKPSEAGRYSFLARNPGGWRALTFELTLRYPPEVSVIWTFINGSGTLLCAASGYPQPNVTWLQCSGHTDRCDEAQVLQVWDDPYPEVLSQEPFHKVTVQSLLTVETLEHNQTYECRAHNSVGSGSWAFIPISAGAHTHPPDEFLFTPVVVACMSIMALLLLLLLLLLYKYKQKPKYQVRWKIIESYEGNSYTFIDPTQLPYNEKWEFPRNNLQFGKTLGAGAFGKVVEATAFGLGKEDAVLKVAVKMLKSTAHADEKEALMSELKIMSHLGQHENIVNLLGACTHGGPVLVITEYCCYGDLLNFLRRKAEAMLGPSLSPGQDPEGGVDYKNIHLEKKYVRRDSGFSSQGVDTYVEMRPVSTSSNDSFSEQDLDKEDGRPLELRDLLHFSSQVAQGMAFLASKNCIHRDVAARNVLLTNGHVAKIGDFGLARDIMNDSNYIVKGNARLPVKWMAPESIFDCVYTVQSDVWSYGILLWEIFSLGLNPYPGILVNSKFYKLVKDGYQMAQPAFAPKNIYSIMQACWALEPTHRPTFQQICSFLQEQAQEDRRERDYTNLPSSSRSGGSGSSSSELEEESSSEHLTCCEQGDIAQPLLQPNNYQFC
T6 sequence (Q05397 411-686): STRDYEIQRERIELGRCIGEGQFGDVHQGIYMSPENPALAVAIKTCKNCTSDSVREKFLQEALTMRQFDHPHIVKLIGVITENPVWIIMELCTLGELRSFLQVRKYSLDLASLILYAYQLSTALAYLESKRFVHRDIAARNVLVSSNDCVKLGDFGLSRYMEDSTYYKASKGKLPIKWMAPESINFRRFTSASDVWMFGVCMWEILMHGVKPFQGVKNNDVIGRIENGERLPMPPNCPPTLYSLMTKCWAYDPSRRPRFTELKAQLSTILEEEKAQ
T1 sequence (P15056 with tags, fused parts or gaps V600E): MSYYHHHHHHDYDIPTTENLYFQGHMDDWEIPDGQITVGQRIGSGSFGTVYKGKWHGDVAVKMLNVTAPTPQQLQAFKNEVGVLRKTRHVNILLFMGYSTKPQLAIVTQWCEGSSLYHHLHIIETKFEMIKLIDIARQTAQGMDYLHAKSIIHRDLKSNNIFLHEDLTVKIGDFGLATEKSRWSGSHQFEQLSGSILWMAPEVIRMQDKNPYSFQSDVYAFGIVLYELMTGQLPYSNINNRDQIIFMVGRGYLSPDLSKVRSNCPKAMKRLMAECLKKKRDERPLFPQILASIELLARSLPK
T3 sequence (P11362 458-765 C488A/C584S): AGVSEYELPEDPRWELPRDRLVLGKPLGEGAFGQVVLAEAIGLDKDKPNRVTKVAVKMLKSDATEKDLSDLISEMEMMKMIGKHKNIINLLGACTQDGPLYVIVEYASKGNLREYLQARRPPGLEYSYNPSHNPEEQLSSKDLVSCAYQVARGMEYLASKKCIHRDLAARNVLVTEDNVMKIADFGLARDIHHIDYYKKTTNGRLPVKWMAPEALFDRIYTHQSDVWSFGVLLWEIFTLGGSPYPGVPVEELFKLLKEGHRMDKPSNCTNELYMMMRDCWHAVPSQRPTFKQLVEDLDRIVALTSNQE
T8 sequence (P04049 whole entry): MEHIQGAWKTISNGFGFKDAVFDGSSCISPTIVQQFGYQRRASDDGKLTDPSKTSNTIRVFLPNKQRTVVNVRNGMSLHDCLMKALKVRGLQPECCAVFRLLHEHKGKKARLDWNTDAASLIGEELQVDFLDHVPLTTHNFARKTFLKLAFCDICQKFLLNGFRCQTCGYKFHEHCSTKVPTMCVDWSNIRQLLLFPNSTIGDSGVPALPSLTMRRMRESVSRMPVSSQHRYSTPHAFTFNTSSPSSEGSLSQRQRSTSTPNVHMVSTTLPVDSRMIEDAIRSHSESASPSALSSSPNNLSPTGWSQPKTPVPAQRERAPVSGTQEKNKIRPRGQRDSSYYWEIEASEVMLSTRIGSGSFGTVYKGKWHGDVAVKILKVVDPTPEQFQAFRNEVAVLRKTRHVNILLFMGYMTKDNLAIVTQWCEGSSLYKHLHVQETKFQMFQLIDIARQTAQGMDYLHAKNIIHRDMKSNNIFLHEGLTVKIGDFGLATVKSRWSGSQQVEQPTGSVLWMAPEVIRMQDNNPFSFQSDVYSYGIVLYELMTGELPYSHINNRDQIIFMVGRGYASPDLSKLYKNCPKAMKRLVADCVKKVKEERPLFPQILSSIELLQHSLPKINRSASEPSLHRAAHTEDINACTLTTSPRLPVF
T12 sequence (P53779 whole entry): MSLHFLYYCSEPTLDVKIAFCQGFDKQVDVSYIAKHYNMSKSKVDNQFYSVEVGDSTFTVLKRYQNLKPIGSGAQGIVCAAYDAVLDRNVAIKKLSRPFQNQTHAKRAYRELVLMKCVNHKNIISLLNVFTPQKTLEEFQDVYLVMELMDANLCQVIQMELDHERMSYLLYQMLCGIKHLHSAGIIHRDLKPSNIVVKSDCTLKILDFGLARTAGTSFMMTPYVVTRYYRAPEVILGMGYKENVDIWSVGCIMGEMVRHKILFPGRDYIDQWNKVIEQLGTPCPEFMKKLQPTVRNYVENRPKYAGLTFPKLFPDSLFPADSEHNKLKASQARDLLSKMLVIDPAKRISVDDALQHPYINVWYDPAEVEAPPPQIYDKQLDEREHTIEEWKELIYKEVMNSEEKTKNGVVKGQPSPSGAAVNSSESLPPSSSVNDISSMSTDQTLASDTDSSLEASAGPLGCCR
T7 sequence (P15056 whole entry): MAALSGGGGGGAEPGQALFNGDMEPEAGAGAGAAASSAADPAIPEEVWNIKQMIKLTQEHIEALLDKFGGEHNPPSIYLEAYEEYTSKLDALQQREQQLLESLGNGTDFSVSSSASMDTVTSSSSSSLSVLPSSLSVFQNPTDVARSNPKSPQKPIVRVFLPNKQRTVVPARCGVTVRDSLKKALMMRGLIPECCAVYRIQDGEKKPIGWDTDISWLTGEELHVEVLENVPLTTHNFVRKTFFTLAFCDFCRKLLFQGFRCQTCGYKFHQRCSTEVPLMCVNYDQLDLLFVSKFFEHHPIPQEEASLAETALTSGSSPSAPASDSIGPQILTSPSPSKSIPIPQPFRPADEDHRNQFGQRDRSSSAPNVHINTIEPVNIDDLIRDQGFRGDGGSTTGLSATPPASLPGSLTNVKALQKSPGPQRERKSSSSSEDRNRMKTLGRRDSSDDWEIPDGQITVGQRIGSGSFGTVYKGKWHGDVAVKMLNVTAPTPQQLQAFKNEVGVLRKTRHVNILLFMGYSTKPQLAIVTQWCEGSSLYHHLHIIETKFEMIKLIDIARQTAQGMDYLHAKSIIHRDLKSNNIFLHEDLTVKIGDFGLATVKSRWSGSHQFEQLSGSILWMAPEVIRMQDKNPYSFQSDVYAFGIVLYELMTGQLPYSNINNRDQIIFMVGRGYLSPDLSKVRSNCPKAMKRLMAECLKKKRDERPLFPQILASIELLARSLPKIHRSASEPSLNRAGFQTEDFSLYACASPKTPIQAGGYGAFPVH

COc1ccc(F)c(C(=O)c2c[nH]c3ncc(-c4ccccc4)cc23)c1F [Compound P-1387, (2,6-Difluoro-3-methoxy-phenyl)-(5-phenyl-1H-pyrrolo[2,3-b]pyridin-3-yl)-methanone]
not listed: Jnk1 | Kdr | Ret | Jnk3 | Flt1
≤ 10 µM: all other assays above

O=C(Nc1ccc(F)c(C(O)c2c[nH]c3ncc(Br)cc23)c1F)OCc1ccccc1 (centres unmarked) [Compound P-1451]
not listed: Jnk1 | Kdr | Ret | Jnk3 | Flt1
≤ 10 µM: all other assays above

COCCOc1ccc(F)c(C(=O)c2c[nH]c3ncc(-c4cccnc4)cc23)c1F [Compound P-1456, [2,6-Difluoro-3-(2-methoxy-ethoxy)-phenyl]-(5-pyridin-3-yl-1H-pyrrolo[2,3-b]pyridin-3-yl)-methanone]
not listed: Src | Kdr | Ret | Jnk3 | Flt1
≤ 10 µM: all other assays above

CCCS(=O)(=O)Nc1ccc(F)c(C(=O)c2c[nH]c3ncc(-c4ccc(N(C)C)cc4)cc23)c1F [Compound P-0889, Propane-1-sulfonic acid {3-[5-(4-dimethylamino-phenyl)-1H-pyrrolo[2,3-b]pyridine-3-carbonyl]-2,4-difluoro-phenyl}-amide]
≤ 10 µM: B-Raf V600E | Src | FGFR1 | Kit | Fak | B-Raf | c-Raf-1

O=[N+]([O-])c1cccc(Cc2c[nH]c3ncc(-c4cccnc4)cc23)c1 [Compound P-1402, 3-(3-nitro-benzyl)-5-pyridin-3-yl-1H-pyrrolo[2,3-b]pyridine]
≤ 10 µM: B-Raf V600E | FGFR1 | Kit | Fms | Fak | Jnk1

O=C(c1ccccc1F)c1c[nH]c2ncc(Br)cc12 [Compound P-0293]
not listed: Src | c-Raf-1 | Jnk1 | Jnk3 | Flt1
≤ 10 µM: all other assays above

Clc1cccc(Cl)c1Cc1c[nH]c2ncc(-c3cccnc3)cc12 [Compound P-1478, 3-(2,6-Dichloro-benzyl)-5-pyridin-3-yl-1H-pyrrolo[2,3-b]pyridine]
≤ 10 µM: B-Raf V600E | Src | FGFR1 | Kit | Fms | Fak

c1cc2ccc(Nc3ccc(N4CCCCC4)cc3)nc2[nH]1 [Compound P-1359, (4-Piperidin-1-yl-phenyl)-(1H-pyrrolo[2,3-b]pyridin-6-yl)-amine]
≤ 10 µM: Jnk3 | Fak | Jnk1

CCCS(=O)(=O)Nc1ccc(F)c(Cc2c[nH]c3ncc(Cl)cc23)c1F [Compound P-1396]
≤ 10 µM: B-Raf V600E | Src | FGFR1 | Kit | Fak | c-Raf-1

CCCS(=O)(=O)Nc1ccc(F)c(C(=O)c2c[nH]c3ncc(C)cc23)c1F [Compound P-1249]
not listed: Jnk1 | Kdr | Ret | Jnk3 | Flt1
≤ 10 µM: all other assays above

COCCOc1ccc(F)c(Cc2c[nH]c3ncc(-c4cccnc4)cc23)c1F [Compound P-1458]
not listed: Src | Kdr | Ret | Flt1
≤ 10 µM: all other assays above

O=C(Nc1ccc(F)c(C(=O)c2c[nH]c3ncc(Br)cc23)c1F)OCc1ccccc1 [Compound P-1457]
≤ 10 µM: B-Raf V600E | Src | Flt1 | Kit | Fms | Fak | B-Raf

CN(c1ccc(F)c(C(O)c2c[nH]c3ncc(-c4cccnc4)cc23)c1F)S(=O)(=O)c1ccc(C(F)(F)F)cc1 (centres unmarked) [Compound P-1400]
≤ 10 µM: Kit | Jnk3 | Fms | Fak | Jnk1

CCCCS(=O)(=O)Nc1ccc(F)c(C(=O)c2c[nH]c3ncc(Br)cc23)c1F [Compound P-1263, Butane-1-sulfonic acid [3-(5-bromo-1H-pyrrolo[2,3-b]pyridine-3-carbonyl)-2,4-difluoro-phenyl]-amide]
≤ 10 µM: B-Raf V600E | Src | FGFR1 | Kit | Fms | Fak | B-Raf

COCCOc1ccc(F)c(C(O)c2c[nH]c3ncc(Br)cc23)c1F (centres unmarked) [Compound P-1452]
≤ 10 µM: B-Raf V600E | FGFR1 | Kit | Fms | Fak | B-Raf | c-Raf-1

COc1ccc(F)c(C(=O)c2c[nH]c3ncc(-c4cccc(NS(C)(=O)=O)c4)cc23)c1F [Compound P-1391, N-{3-[3-(2,6-Difluoro-3-methoxy-benzoyl)-1H-pyrrolo[2,3-b]pyridin-5-yl]-phenyl}-methanesulfonamide]
not listed: Jnk1 | Kdr | Ret | Jnk3 | Flt1
≤ 10 µM: all other assays above

Clc1cc(Cl)cc(Nc2c[nH]c3ncccc23)c1 [Compound P-1502, (3,5-Dichloro-phenyl)-(1H-pyrrolo[2,3-b]pyridin-3-yl)-amine]
≤ 10 µM: Flt1 | Kit | Fms | Fak

CCCCS(=O)(=O)Nc1ccc(F)c(C(=O)c2c[nH]c3ncc(OC)cc23)c1F [Compound P-1264, Butane-1-sulfonic acid [2,4-difluoro-3-(5-methoxy-1H-pyrrolo[2,3-b]pyridine-3-carbonyl)-phenyl]-amide]
≤ 10 µM: B-Raf V600E | Src | FGFR1 | Kit | Fms | Fak | B-Raf

FC(F)(F)Oc1ccc(Nc2c[nH]c3ncccc23)cc1 [Compound P-1492, (1H-Pyrrolo[2,3-b]pyridin-3-yl)-(4-trifluoromethoxy-phenyl)-amine]
≤ 10 µM: Flt1 | Fms | Fak

c1ccc(Oc2ccc(Nc3c[nH]c4ncccc34)cc2)cc1 [Compound P-1495, (4-Phenoxy-phenyl)-(1H-pyrrolo[2,3-b]pyridin-3-yl)-amine]
≤ 10 µM: B-Raf V600E | Src | Flt1 | Kit | Fms | Fak
